In brackets after ≈: the same amount, converted by molar mass. Residues, ends and D or L forms follow the SMILES beside them. *: point of attachment. Cbz = O=C(OCc1ccccc1)*
Legend:
[1] = Selectivity index, ratio of ED50 for human HL60 cells to ED50 for Trypanosoma brucei brucei; format: toxicity, cell-based, HL-60; conditions: read-out: Ratio ED50
Trypanosoma brucei = experiment: Inhibition of Trypanosoma brucei rhodesain assessed as second order rate constant
[2] = test system: Trypanosoma brucei brucei; experiment: Antitrypanosomal activity against blood stream form of Trypanosoma brucei brucei; format: functional, organism-based; conditions: for EC50: read-out: ED50 (the source's name)
[3] = Cytotoxicity against human HL60 cells; format: cell-based, HL-60; conditions: for CC50: read-out: ED50 (the source's name); for MCC: read-out: MIC
[4] = test system: Trypanosoma brucei brucei; experiment: Antitrypanosomal activity against procyclic form of Trypanosoma brucei brucei; format: functional; conditions: read-out: ED50 (the source's name)
[5] = Oral bioavailability in Sprague-Dawley rat; format: ADME, organism-based; conditions: in vivo
[6] = Inhibition of Trypanosoma brucei recombinant rhodesain
[7] = Inhibition of cathepsin B (unknown origin); parameters: species or system Homo sapiens
Trypsin = Trypsin (Homo sapiens, UniProt P07477+P07478+P35030); experiment: Inhibition of trypsin (unknown origin); format: protein assay
[8] = Inhibition of Trypanosoma brucei rhodesain
Cruzipain = Cruzipain (Trypanosoma cruzi, UniProt P25779); experiment: Inhibition of Trypanosoma cruzi cruzain
Cruzipain, sequence (P25779 whole entry): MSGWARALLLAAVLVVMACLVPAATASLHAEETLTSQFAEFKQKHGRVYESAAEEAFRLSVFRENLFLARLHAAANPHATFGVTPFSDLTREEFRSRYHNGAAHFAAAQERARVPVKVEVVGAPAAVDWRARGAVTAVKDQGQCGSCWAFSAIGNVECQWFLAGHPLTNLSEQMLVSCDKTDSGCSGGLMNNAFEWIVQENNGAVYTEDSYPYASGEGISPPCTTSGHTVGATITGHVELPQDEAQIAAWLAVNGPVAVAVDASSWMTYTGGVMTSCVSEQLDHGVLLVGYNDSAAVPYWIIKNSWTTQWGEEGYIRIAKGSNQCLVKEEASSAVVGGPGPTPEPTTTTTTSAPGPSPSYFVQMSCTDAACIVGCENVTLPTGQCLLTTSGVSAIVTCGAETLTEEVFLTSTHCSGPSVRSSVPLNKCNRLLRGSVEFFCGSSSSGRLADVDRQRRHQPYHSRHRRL

Papain = biological target: T1, Papain (Carica papaya, UniProt P00784); experiment: Inhibition of papaya papain
T1 sequence (P00784 whole entry): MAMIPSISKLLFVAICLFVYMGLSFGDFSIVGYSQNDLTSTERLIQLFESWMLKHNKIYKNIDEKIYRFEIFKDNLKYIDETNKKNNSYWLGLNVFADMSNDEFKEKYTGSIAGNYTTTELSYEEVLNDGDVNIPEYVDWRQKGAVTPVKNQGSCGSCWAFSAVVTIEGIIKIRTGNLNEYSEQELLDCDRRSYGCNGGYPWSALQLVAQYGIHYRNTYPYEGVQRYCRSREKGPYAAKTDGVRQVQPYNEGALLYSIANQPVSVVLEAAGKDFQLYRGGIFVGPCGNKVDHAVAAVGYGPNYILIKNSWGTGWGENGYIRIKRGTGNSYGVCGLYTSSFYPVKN

Compound	selectivity ratio [1]	K (Trypanosoma brucei)	MIC [2] [µM]	EC50 [2] [µM]	CC50 [3] [µM]	MCC [3] [µM]	EC50 [4] [µM]	bioavailability [5] [%]	IC50 [6] [µM]	further results
O=C[C@H](Cc1ccc(O)cc1)NC(=O)[C@H](Cc1ccccc1)NC(=O)OCc1ccccc1 (Cbz-Phe-Tyr-aldehyde)	482	1.38 ×10⁸ /M/min	100 (≈ 44.7 µg/mL)	0.045	21.5	> 100				
O=C(N[C@H](/C=C/S(=O)(=O)c1ccccc1)CCc1ccccc1)[C@H](Cc1ccccc1)NC(=O)N1CCOCC1				5.6			7.3	3	0.00036	
CC[C@H](C)[C@H](NS(=O)(=O)c1cccc2ccccc12)C(=O)N[C@H](C=O)Cc1c[nH]c2ccccc12	1150	3.54 ×10⁷ /M/min	10 (≈ 4.92 µg/mL)	0.018	21	> 100				
CN1CCN(C(=O)N[C@@H](Cc2ccccc2)C(=O)N[C@H](/C=C/S(=O)(=O)c2ccccc2)CCc2ccccc2)CC1 [K-777]		9 ×10⁶ /M/min		0.9			5.8	19.9	0.00035	
O=C(Nc1ccc(Cl)cc1)Nc1csc(-c2ccc(C(F)(F)F)cc2)n1										IC50 [7]: 10.8 µM; IC50 (Trypsin): > 50 µM; IC50 [8]: 2 µM; IC50 (Cruzipain): 1.2 µM; IC50 (Papain): > 50 µM
Cc1ccc(C(=O)Nc2ccc(S(=O)(=O)O)c3cc(S(=O)(=O)O)cc(S(=O)(=O)O)c23)cc1NC(=O)c1cccc(NC(=O)Nc2cccc(C(=O)Nc3cc(C(=O)Nc4ccc(S(=O)(=O)O)c5cc(S(=O)(=O)O)cc(S(=O)(=O)O)c45)ccc3C)c2)c1 [SURAMIN]	1900			0.13						

— ChEMBL document CHEMBL2401704, “Inhibition of rhodesain as a novel therapeutic modality for human African trypanosomiasis” (J Med Chem, 2013)
